Entries after “also recorded” stand apart in the source; their conditions may differ.
Columns and labels:
Assay type in all cases: in vivo, human
[1] = tested on: eyelashes of subjects with chemotherapy-induced hypotrichosis; test: Digital image analysis of upper eyelash length, thickness, darkness, chemotherapy-induced hypotrichosis; details: for Upper eyelash length, median percent change from baseline / Upper eyelash thickness, median percent change from baseline / Upper eyelash darkness, median percent change from baseline: chemotherapy-induced; for Upper eyelash darkness, median percent change from baseline / Mean change from baseline in eyelash darkness: negative = darker
Procedure: Efficacy was also assessed using more conservative criteria of 2-grade improvement in GEA. […] In addition to the investigator global assessment (GEA) and subjects own assessment (ESQ), the eyelash length, thickness/fullness and darkness were measures using digital image analysis. Secondary efficacy measures were based on digital image analysis (DIA) of eyelash characteristics: upper eyelash length (millimeters [mm]), thickness (mm^2), and darkness (intensity units). For darkness, a negative value in terms of change from baseline indicated darker eyelashes. Upper eyelash characteristics of length, thickness, and darkness were determined by a validated DIA method. The reliability and reproducibility of DIA have been verified within the acceptance criteria of 0.05% or less of mean coefficient of variance. The principal variables for the secondary efficacy assessments are: change from baseline in upper eyelash length (mm), average progressive eyelash thickness (mm^2), and eyelash darkness (intensity units) at months 4, 6, 10, and 12 or early termination. Descriptive statistics of the raw value at baseline and percent change from baseline at follow-up visits were summarized by treatment group for each principal measure of the 3 secondary variables of eyelash characteristics. Between-group comparisons were performed using a van Elteren test stratified by hypotrichosis etiology.

[2] = Safety (adverse events, IOP), chemotherapy-induced hypotrichosis subpopulation
Procedure: (§1) Safety measures included adverse events (AEs), ophthalmic examination (ophthalmoscopy [dilated], biomicroscopy, IOP, iris color assessment, and BCVA). AEs were monitored throughout the study by the investigator.
(§2) The 12-month data were the primary focus of the safety evaluation. Safety data were summarized with descriptive statistics (n, or frequency distributions [counts or percentages]). Biomicroscopic examinations and assessments of iris color, IOP, and BCVA were performed for each subject at screening/baseline and months 1, 2, 4, 6, 8, and 12 (or early termination prior to month 12); ophthalmoscopic examinations (dilated) were performed at screening/baseline and months 6 and 12 (or early termination prior to month 12). Two IOP measurements were taken for each eye at each visit; a third measurement was taken if the difference between the first 2 measurements was more than 2 mm Hg. The average or median IOP was determined in the event that 2 or 3 measurements were made, respectively. The IOP value analyzed at each visit was the average IOP of the subject's 2 eyes. Change and percent change from baseline in IOP were summarized by descriptive statistics. Between-group comparison will be performed using the 1-way analysis of variance.

[3] = Safety, overall study population (adverse events, ophthalmic examination, IOP, iris color)
Procedure: as §1, §2
Iris color assessments were performed using a 10-category subjective classification: blue, blue-gray, blue/gray-brown, gray, green, green-brown, hazel, brown, dark brown, and other.

[4] = postchemotherapy, Month 4, bimatoprost from day 1
[5] = postchemotherapy, Month 4, bimatoprost from day 1, listed as Bim/Bim
[6] = postchemotherapy, Month 6, bimatoprost from day 1
[7] = postchemotherapy, Month 6, bimatoprost from day 1, listed as Bim/Bim
[8] = postchemotherapy, Month 6, bimatoprost from day 1, listed as bimatoprost
[9] = postchemotherapy, Month 10, Bim/Bim
[10] = postchemotherapy, Month 10, Veh/Bim (bimatoprost since month 6)
[11] = postchemotherapy, Month 12, Bim/Bim
[12] = postchemotherapy, Month 12, Veh/Bim (bimatoprost since month 6)
[13] = postchemotherapy, Month 12, bimatoprost up to 12 months
[14] = chemotherapy-induced, 0 to 6 Months (N = 96)
[15] = chemotherapy-induced, 0 to 12 Months (N = 96)
[16] = chemotherapy-induced, 6 to 12 Months (N = 89)
[17] = postchemotherapy, first 6-month study period
[18] = postchemotherapy, first 6 months, N = 96
[19] = overall population during bimatoprost treatment periods
[20] = subjects treated with bimatoprost, 10-category scale

Structure (SMILES): CCNC(=O)CCC/C=C\C[C@@H]1[C@@H](/C=C/[C@@H](O)CCc2ccccc2)[C@H](O)C[C@@H]1O [Bim 0.03%, bimatoprost]
- Upper eyelash length, median percent change from baseline ([1]; Month 4): 28.50%
- Upper eyelash thickness, median percent change from baseline ([1]; Month 4): 180.10%
- Upper eyelash length, median percent change from baseline ([1]; Month 4, listed as Bimatoprost): 28.5 (94) %
- Upper eyelash thickness, median percent change from baseline ([1]; Month 4, listed as Bimatoprost): 180.1 (64) %
- Upper eyelash darkness, median percent change from baseline ([1]; Month 4): −14.40%
- Upper eyelash darkness, median percent change from baseline ([1]; Month 4, listed as Bimatoprost): −14.4 (65) %
- Upper eyelash length, median percent change from baseline ([1]; Month 6, listed as Bimatoprost): 37.8 (94) %
- Upper eyelash thickness, median percent change from baseline ([1]; Month 6, listed as Bimatoprost): 245.9 (64) %
- Upper eyelash length, median percent change from baseline ([1]; Month 6, listed as bimatoprost): 37.84%
- Upper eyelash thickness, median percent change from baseline ([1]; Month 6, listed as bimatoprost): 245%
- Upper eyelash darkness, median percent change from baseline ([1]; Month 6): −16.3 (65) %
- Mean change from baseline in average progressive eyelash thickness [1, 4]: 0.67 mm^2
- Mean change from baseline in eyelash length [1, 4]: 1.48 mm
- Mean change from baseline in average progressive eyelash thickness [1, 5]: 0.67 ± 0.514 mm^2
- Mean change from baseline in eyelash length [1, 5]: 1.48 ± 1.391 mm
- Mean change from baseline in eyelash darkness ([1]; postchemotherapy, Month 4): −22.48
- Eyelash length, mean percent increase from baseline ([1]; postchemotherapy, Month 6): 48.08%
- Eyelash thickness, mean percent increase from baseline ([1]; postchemotherapy, Month 6): 428%
- Mean change from baseline in average progressive eyelash thickness [1, 6]: 0.83 mm^2
- Mean change from baseline in eyelash length [1, 6]: 1.99 mm
- Mean change from baseline in average progressive eyelash thickness [1, 7]: 0.83 ± 0.576 mm^2
- Mean change from baseline in eyelash length [1, 7]: 1.99 ± 1.557 mm
- Mean change from baseline in average progressive eyelash thickness [1, 8]: 0.83 mm^2
- Mean change from baseline in eyelash length [1, 8]: 1.99 mm
- Mean change from baseline in eyelash darkness ([1]; postchemotherapy, Month 6): −26.46
- Mean change from baseline in average progressive eyelash thickness [1, 9]: 0.88 ± 0.516 mm^2
- Mean change from baseline in eyelash length [1, 9]: 2.14 ± 1.455 mm
- Mean change from baseline in average progressive eyelash thickness [1, 10]: 0.63 ± 1.042 mm^2
- Mean change from baseline in eyelash length [1, 10]: 2.27 ± 1.439 mm
- Mean change from baseline in average progressive eyelash thickness [1, 11]: 0.85 ± 0.575 mm^2
- Mean change from baseline in eyelash length [1, 11]: 2.01 ± 1.504 mm
- Mean change from baseline in average progressive eyelash thickness [1, 12]: 0.58 ± 1.085 mm^2
- Mean change from baseline in eyelash length [1, 12]: 2.07 ± 1.442 mm
- Eyelash length, mean percent increase from baseline [1, 13]: 49.88%
- Eyelash length, median percent increase from baseline [1, 13]: 39.08%
- Eyelash thickness, mean percent increase from baseline [1, 13]: 478%
- Eyelash thickness, median percent increase from baseline [1, 13]: 212%
- Conjunctival hyperaemia [2, 14]: 15.6%
- Erythema of eyelid [2, 14]: 1.0%
- Eye pruritus [2, 14]: 5.2%
- Eyelids pruritus [2, 14]: 3.1%
- Punctate keratitis [2, 14]: 8.3%
- Skin hyperpigmentation [2, 14]: 3.1%
- Conjunctival hyperaemia [2, 15]: 16.7%
- Erythema of eyelid [2, 15]: 3.1%
- Eye pruritus [2, 15]: 6.3%
- Eyelids pruritus [2, 15]: 3.1%
- Punctate keratitis [2, 15]: 9.4%
- Skin hyperpigmentation [2, 15]: 5.2%
- Mean change from baseline in IOP ([2]; chemotherapy-induced, 2-month visit, IOP measured in mm Hg): −1.22
- Conjunctival hyperaemia [2, 16]: 1.1%
- Erythema of eyelid [2, 16]: 2.2%
- Eye pruritus [2, 16]: 1.1%
- Eyelids pruritus [2, 16]: 1.1%
- Punctate keratitis [2, 16]: 1.1%
- Skin hyperpigmentation [2, 16]: 2.2%
- Subjects reporting at least 1 adverse event [2, 17]: 57.3%
- Subjects reporting treatment-related adverse events [2, 17]: 27.1%
- Treatment-related adverse events reported as severe ([2]; postchemotherapy, first 6 months): None
- Treatment-related conjunctival hyperaemia [2, 18]: 12 subjects
- Treatment-related eye pruritus [2, 18]: 3 subjects
- Treatment-related eyelid irritation [2, 18]: 2 subjects
- Treatment-related eyelids pruritus [2, 18]: 3 subjects
- Treatment-related punctate keratitis [2, 18]: 7 subjects
- Treatment-related skin hyperpigmentation [2, 18]: 3 subjects
- 1-category change in iris hyperpigmentation reported as an AE ([3]; about 2 months after discontinuation of bimatoprost and initiation of vehicle, mild): 1 subject
- Greatest magnitude of mean change from baseline IOP ([3]; any time point, any group): less than 2 mm Hg
- Subjects with biomicroscopy and ophthalmoscopy findings of at least a 2-severity grade increase from baseline ([3]; bimatoprost 0.03% followed by vehicle (6-month treatment period)): 5.0%
- Subjects with biomicroscopy and ophthalmoscopy findings of at least a 2-severity grade increase from baseline ([3]; bimatoprost during both treatment periods (12-month treatment period)): 4.2%
- Drug-related serious adverse events ([3]; both subpopulations, 12-month study): No drug-related serious adverse events were reported; also recorded: no serious AEs attributed to study treatment
- Conjunctival hyperaemia [3, 19]: 12.1%
- Erythema [3, 19]: 4.2%
- Eyelid pruritus [3, 19]: 4.7%
- Punctuate keratitis [3, 19]: 5.6%
- 1- to 2-category iris color change from dark to light [3, 20]: 6 subjects
- 1-category iris color change from light to dark [3, 20]: 5 subjects
- Subjects with biomicroscopy and ophthalmoscopy findings of at least a 2-severity grade increase from baseline ([3]; vehicle followed by bimatoprost (6-month treatment period)): 2.4%
- Subjects discontinued due to a treatment-related AE ([3]; whole study (study treatment), all in idiopathic subpopulation): 2.8%
- Enophthalmos leading to treatment discontinuation ([3]; whole study, mild/moderate): 1 subject
